From patent US7745222B2, “Amyloid binding assays” (priority 2006, dated 2010)

Columns and labels:
[1] = tested on: soluble oligomeric A-beta (human beta-amyloid 1-42); format: binding; details: for binding to soluble oligomeric A-beta: A-beta species on Sprague-Dawley naive rat brain section (hippocampus), fluorescence imaging, FIG. 2-3
Experimental: (§1) In one embodiment, sections of Sprauge-Dawley naïve rat brain (Taconic) 10 microns in thickness were fixed with 10% formalin in phosphate buffered saline (PBS).
Soluble A-beta oligomer formation. 1 mg of human beta-amyloid 1-42 (H-5642, Bachem) and 500 uL of 1,1,1,3,3,3 hexafluoro-2-propanol (HFIP) (Aldrich) were chilled in separate bottles on ice for 30 minutes. Cold beta-amyloid 1-42 was solubilized with cold HFIP. The mixture was incubated for 1 hr at room temperature until it turned clear. The resulting solution was then dried to a film under vacuum. The film was dissolved again in cold HFIP and incubated another 1 hr at room temperature. The resulting solution was separated into aliquots in several microcentrifuge tubes. HFIP was removed under vacuum, and the films were stored at −20° C. until use. To prepare soluble oligomer, the film was dissolved in appropriate amount of dry DMSO (Sigma), and Ham's F12 media (Biosource) or PBS (Sigma, D8537) was added and incubated at 4° C. for 24 hours (final concentration of 200 uM or 0.9 mg/mL beta-amyloid in 2% DMSO).
(§2) The slides were washed with PBS three times then incubated with blocking buffer consisting of 10% normal goat serum in 3% BSA in PBS.
(§3) For the sandwich assay approach 100 μL of 1/250th dilution of anti-A-beta antibody, (Signet) was applied to the tissue. The tissue was then incubated for 1.5 hours at room temperature, or in an alternative approach, for 45 minutes at 37° C. Next, a 1/100th dilution of the secondary antibody Alexa Flour 594-goat antimouse IgG (Molecular Probes) was prepared in PBS and 100 μl was applied to the slides, which were then incubated at room temperature for 1.5 hours. […]
(§4) Microscopic examination was performed using a Leica (Leica Microsystems Inc, Bannockburn Ill.) wide-field fluorescence microscope.
(§5) The fluorescent images were quantified by calculating the sum of pixel intensity of the immunofluorescence for each amyloid species. […]

[2] = tested on: A-beta fibrils (human A-beta 1-40); format: binding; details: A-beta fibrils on rat brain section; fluorescence imaging; FIG. 4-5
Experimental: as §1
The clear film of A-beta 1-40 was diluted with distilled water to achieve a 6-mg/mL concentration. […] The clear solution was diluted to 1 mg/mL with PBS, pH 7.4 to obtain a final concentration of 1 mg/mL A-beta 1-40 then incubated at 37° C. on an orbital shaker at 200 RPM for 4 days.
as §2, §3, §4, §5

Row | Compound | binding to soluble oligomeric A-beta [1] | preferential binding, soluble A-beta relative to insoluble A-beta ([1]; stated as validated property of the binder) | binding to A-beta fibrils [2]
1 | O=Cc1ccc(-c2oc3ccccc3c2CO)o1 [68B-3] | bound | preferential binder for soluble A-beta | bound
2 | Cc1ccc2c(c1)sc(-c1ccc(N(C)C)cc1)[n+]2C.[Cl-] [Thioflavin T] | bound | – | bound
